Measurements taken from patent US20120029196A1, “PURIFICATION 4-AZA-ANDROST-1-ENE-17-OIC ACID FROM 4-AZA-ANDROSTAN-17-OIC ACID” (PHF S.A., priority 2009, published 2012).

Test: solubility in solvents at 25° C.
Assay type: physicochemical
[1] = solvent Toluene, LOD = Limit Of Detection

Structure (SMILES)	solubility at 25° C. (solvent Acetic Acid) [% w/w]	solubility at 25° C. (solvent Acetone) [% w/w]	solubility at 25° C. (solvent DMF) [% w/w]	solubility at 25° C. (solvent Ethyl acetate) [% w/w]	solubility at 25° C. (solvent Formic Acid) [% w/w]	solubility at 25° C. (solvent MTBE) [% w/w]	solubility at 25° C. (solvent Methanol) [% w/w]	solubility at 25° C. (solvent Methylene chloride) [% w/w]	solubility at 25° C. (solvent Propionic Acid) [% w/w]	solubility at 25° C. [1]	solubility in formic acid (comparison in words) (formic acid)
C[C@]12CC[C@H]3[C@@H](CCC4NC(=O)C=C[C@@]43C)[C@@H]1CC[C@@H]2C(=O)O (stereo partly drawn) [Intermediate 1]	8.1	0.06	2.4	0.02	7.7	0.009	0.6	0.04	6.6	<LOD	–
C[C@]12CC[C@H]3[C@@H](CCC4NC(=O)CC[C@@]43C)[C@@H]1CC[C@@H]2C(=O)O (stereo partly drawn) [Intermediate 2]	3.69	0.008	0.40	0.003	20.32	0.001	0.16	0.008	3.10	<LOD	higher than Intermediate 1
